Test results as given in patent US20100278751A1, “RADIOLABELED 2-AMINO-4-ALKYL-6-(HALOALKYL)PYRIDINE COMPOUNDS AND THEIR USE IN DIAGNOSTIC IMAGING” (WASHINGTON UNIVERSITY, priority 2009, published 2010).
Where two headings read alike, the source gives them in different places.

Columns and labels:
iNOS [1] = biological target: T1, iNOS (Mus musculus, UniProt P29477); test: Blocking studies of tracer uptake in LPS-treated mice; assay type: in vivo
T1 construct: from tissue
Method: This example describes blocking studies. […] P., et al., J. Biol. Chem. 272: 4959-4963, 1997). […] At 1 h post injection, % ID in lung was determined.

iNOS [2] = biological target: T2, iNOS (Homo sapiens, UniProt P35228); conditions: cited from earlier work
T2 sequence (P35228 whole entry): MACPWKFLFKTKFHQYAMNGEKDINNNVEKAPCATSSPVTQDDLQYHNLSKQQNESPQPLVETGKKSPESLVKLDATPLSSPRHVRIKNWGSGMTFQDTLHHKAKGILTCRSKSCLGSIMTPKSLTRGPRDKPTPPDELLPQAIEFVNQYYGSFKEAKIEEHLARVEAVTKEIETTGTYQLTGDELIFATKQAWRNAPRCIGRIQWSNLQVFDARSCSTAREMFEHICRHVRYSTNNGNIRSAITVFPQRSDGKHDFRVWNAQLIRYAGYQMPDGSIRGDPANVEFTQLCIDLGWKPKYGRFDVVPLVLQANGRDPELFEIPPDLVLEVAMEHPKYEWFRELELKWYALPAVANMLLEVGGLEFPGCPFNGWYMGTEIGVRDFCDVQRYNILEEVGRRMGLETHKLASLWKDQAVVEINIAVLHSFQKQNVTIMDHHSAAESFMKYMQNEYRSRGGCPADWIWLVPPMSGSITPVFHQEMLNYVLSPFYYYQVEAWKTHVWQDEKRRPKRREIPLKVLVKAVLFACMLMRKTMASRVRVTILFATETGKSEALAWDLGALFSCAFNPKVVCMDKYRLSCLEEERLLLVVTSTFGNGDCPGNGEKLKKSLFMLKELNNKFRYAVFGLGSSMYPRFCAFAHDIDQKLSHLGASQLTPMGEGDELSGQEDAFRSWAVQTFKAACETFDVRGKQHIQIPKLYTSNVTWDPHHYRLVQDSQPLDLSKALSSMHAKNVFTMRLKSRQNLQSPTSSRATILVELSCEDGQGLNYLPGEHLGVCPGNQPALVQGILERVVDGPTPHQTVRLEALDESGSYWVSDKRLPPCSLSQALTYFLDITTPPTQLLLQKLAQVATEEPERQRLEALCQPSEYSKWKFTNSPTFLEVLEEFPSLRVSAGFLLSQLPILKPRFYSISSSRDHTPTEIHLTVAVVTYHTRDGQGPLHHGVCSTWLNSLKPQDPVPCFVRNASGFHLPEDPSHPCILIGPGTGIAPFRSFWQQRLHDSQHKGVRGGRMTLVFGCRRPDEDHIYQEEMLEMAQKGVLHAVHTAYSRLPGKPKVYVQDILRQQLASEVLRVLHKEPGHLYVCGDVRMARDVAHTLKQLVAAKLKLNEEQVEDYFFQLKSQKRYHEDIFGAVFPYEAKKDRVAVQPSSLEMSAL

iNOS [3] = biological target: T2, iNOS; test: iNOS activity, nitric oxide synthase screening kit (IC50); assay type: biochemical
Method: The IC50 for inhibiting iNOS was determined for various compounds, as shown in FIG. 3 and FIG. 4 In these experiments, IC50 determinations for a compound was made by measuring iNOS activity in the presence of a compound at multiple concentrations. iNOS activity was measured by assays using the nitric oxide synthase screening kit (GE Healthcare Biosciences Corp., Piscataway, N.J.) following the manufacturer's protocols.

nNOS = nNOS (Homo sapiens, UniProt P29475); test: nNOS selectivity, nitric oxide synthase screening kit (IC50); assay type: biochemical
Method: (§1) All assays were performed using the nitric oxide synthase screening kit (GE Healthcare Biosciences Corp., Piscataway, N.J.) following the manufacturer's protocols.

eNOS = eNOS (Homo sapiens, UniProt P29474); test: eNOS selectivity, nitric oxide synthase screening kit (IC50); assay type: biochemical
Method: as §1

[4] = In vivo stability (percent parent compound in plasma/blood) in rats; set-up: species or system Sprague-Dawley rats
Method: Adult male Sprague-Dawley rats were injected with [^18F]compound 14, and at 5 and 30 minutes post injection, plasma samples were obtained. Supernatants from the plasma samples were analyzed by silica gel radio-TLC and reversed phase HPLC. After 30 minutes, the percent parent compound was only 20.2%. Additionally, within 5 minutes post injection, only 40.3% of the activity in the blood was [^18F]compound 14, which was confirmed by HPLC co-elution with non-radioactive compound 14. According to the HPLC analysis, the major metabolite, constituting 50% of the activity in blood at 5 minutes post injection, was very polar but was not free [^18F] fluoride. This observation is also consistent with the low bone uptake reported in biodistribution studies.

iNOS [5] = biological target: T1, iNOS; test: microPET imaging study in LPS-treated and control mice; assay type: in vivo; conditions: LPS intratracheally treated mouse vs control mouse
Method: Two mice, one intratracheally treated with LPS, and a control mouse, were injected with [^18F]compound 14. […] This difference in tracer accumulation is consistent with the difference in accumulation of iNOS described between LPS-treated and control mice in the preceeding examples.

[6] = In vitro stability in heparinized rat whole blood; assay type: in vitro ADME, Sprague-Dawley rat; conditions: 37° C.
Method: The in vitro stability of [^18F]compound 14 was tested by using heparinized blood from an adult male Sprague-Dawley rat. [^18F]compound 14 was relatively stable in the whole blood for 2 h at 37° C. At 1 h, approximately 80% of the activity recovered from lysed whole blood was observed as [^18F]compound 14, and at 2 h, approximately 75% of the recovered activity was still in the form of [^18F]compound 14.

[7] = Biodistribution in control vs. LPS treated mice; assay type: in vivo, C57BL/6 mice
Method: This example describes the results of in vivo studies on the biodistribution of iNOS inhibitors. The biodistribution studies were performed in mature male C57BL/6 mice. One group of mice was treated with bacterial lipopolysaccharide (LPS) (10 mg/kg, administered intravenously) to induce iNOS expression, and a control group was left untreated.

[8] = iNOS, read-out: IC50 (standards for measuring IC50)
[9] = iNOS, read-out: IC50 of tested compounds
[10] = measured against SEITU, L-NIL and 2-AP as standards, read-out: IC50 for iNOS
[11] = read-out: Selectivity (IC50) iNOS

Cc1ccnc(N)c1 [2-amino-4-methylpyridine]
blocking of increased uptake of [18F]compound 14 (iNOS [1]; blocker 10 mg/kg intravenously): failed to block

CC(=N)NCc1cccc(CN)c1 [1400 W, N-(3-(aminomethyl)benzyl)acetamidine]
tracer uptake in the lungs and blood blocked (iNOS [1]; blocker 5 mg/kg i.v. immediately before [18F]compound 14, 1 h post injection): 32%

Nc1ncc2[nH]cnc2n1 [Compound 2-AP, 2-aminopurine, reference compound]
IC50 (iNOS [2]; reported value for standards): 170 nM | IC50 (iNOS [3]; [8]): 108 ± 34.5 nM

Cc1cc(N)nc(CC(C)C)c1 [Compound 11]
melting point: 59 to 61 °C | IC50 (iNOS [3]; [9]): 193 ± 38 nM

Cc1cc(N)nc(CC(C)F)c1 (stereo not shown) [Compound 14]
IC50 (nNOS): 493 ± 80.8 nM | IC50 (eNOS): 1520 ± 300 nM | IC50 (iNOS [3]; [9]): 54.3 ± 8.9 nM | IC50 (iNOS [3]; [10]): < 190 nM | IC50 (iNOS [3]; [11]): 54.3 ± 8.9 nM

CC(C)=Cc1cc(C)cc(N)n1 [Compound 25]
IC50 (iNOS [3]; [9]): 685 ± 127 nM

Cc1cc(N)nc(CCCF)c1 [Compound 52]
IC50 (nNOS): 514 ± 83.3 nM | IC50 (eNOS): 1430 ± 158 nM | IC50 (iNOS [3]; [9]): 57.6 ± 5.3 nM | IC50 (iNOS [3]; [10]): < 190 nM | IC50 (iNOS [3]; [11]): 57.6 ± 5.3 nM

C/C=C/c1cc(C)cc(N)n1 [DZ(III)-73]
IC50 (iNOS [3]; [9]): 282 ± 48.6 nM

Cc1cc(N)nc(CC(C)O)c1 (stereo not shown) [DZ(III)-77/Compound 14]
IC50 (iNOS [3]; [9]): 1780 ± 395 nM

Cc1cc(N)nc(CC(C)CCF)c1 (stereo not shown) [DZ(IV)-93]
IC50 (iNOS [3]; [9]): 731 ± 87 nM

Cc1cc(N)nc(CCCCF)c1 [DZ(IV)-120]
IC50 (iNOS [3]; [9]): 170 ± 26.5 nM

CCSC(=N)N [SEITU, S-ethylisothiourea, reference compound]
Ki (iNOS [2]; reported value): 32 nM | IC50 (iNOS [3]; [8]): 30.5 ± 4.6 nM

Cc1cc(N)nc(CC(C)[18F])c1 (stereo not shown) [[^18F]compound 14]
activity in the blood that was parent compound ([4]; 5 minutes post injection): 40.3% | major (very polar) metabolite, share of the activity in blood ([4]; 5 minutes post injection, HPLC): 50% | percent parent compound ([4]; plasma, 30 minutes post injection): 20.2% | tracer accumulation in lungs (microPET) (iNOS [5]): accumulated in the lungs of the LPS-treated mouse, but not in the control mouse | activity recovered from lysed whole blood observed as parent ([6]; 1 h): approximately 80% | recovered activity still in the form of parent ([6]; 2 h): approximately 75% | Biodistribution Blood ([7]; Control mice, 5 min): 2.37 ± 0.18 % ID/g | Biodistribution Bone ([7]; Control mice, 5 min): 1.52 ± 0.36 % ID/g | Biodistribution Brain ([7]; Control mice, 5 min): 1.60 ± 0.17 % ID/g | Biodistribution Heart ([7]; Control mice, 5 min): 1.50 ± 0.12 % ID/g | Biodistribution Kidney ([7]; Control mice, 5 min): 20.6 ± 2.4 % ID/g | Biodistribution Liver ([7]; Control mice, 5 min): 33.2 ± 3.3 % ID/g | Biodistribution Lung ([7]; Control mice, 5 min): 3.33 ± 0.28 % ID/g | Biodistribution Muscle ([7]; Control mice, 5 min): 1.25 ± 0.06 % ID/g | Biodistribution Blood ([7]; Control mice, 30 min): 1.22 ± 0.16 % ID/g | Biodistribution Bone ([7]; Control mice, 30 min): 2.26 ± 0.55 % ID/g | Biodistribution Brain ([7]; Control mice, 30 min): 0.28 ± 0.02 % ID/g | Biodistribution Heart ([7]; Control mice, 30 min): 0.60 ± 0.05 % ID/g | Biodistribution Kidney ([7]; Control mice, 30 min): 7.30 ± 0.66 % ID/g | Biodistribution Liver ([7]; Control mice, 30 min): 10.7 ± 0.3 % ID/g | Biodistribution Lung ([7]; Control mice, 30 min): 1.14 ± 0.13 % ID/g | Biodistribution Muscle ([7]; Control mice, 30 min): 0.71 ± 0.31 % ID/g | Biodistribution Blood ([7]; Control mice, 1 h): 0.31 ± 0.04 % ID/g | Biodistribution Bone ([7]; Control mice, 1 h): 2.57 ± 0.64 % ID/g | Biodistribution Brain ([7]; Control mice, 1 h): 0.11 ± 0.02 % ID/g | Biodistribution Heart ([7]; Control mice, 1 h): 0.19 ± 0.02 % ID/g | Biodistribution Kidney ([7]; Control mice, 1 h): 2.20 ± 0.25 % ID/g | Biodistribution Liver ([7]; Control mice, 1 h): 2.59 ± 0.49 % ID/g | Biodistribution Lung ([7]; Control mice, 1 h): 0.31 ± 0.06 % ID/g | Biodistribution Muscle ([7]; Control mice, 1 h): 0.27 ± 0.18 % ID/g | Biodistribution Blood ([7]; Control mice, 2 h): 0.27 ± 0.22 % ID/g | Biodistribution Bone ([7]; Control mice, 2 h): 5.59 ± 4.20 % ID/g | Biodistribution Brain ([7]; Control mice, 2 h): 0.07 ± 0.03 % ID/g | Biodistribution Heart ([7]; Control mice, 2 h): 0.08 ± 0.02 % ID/g | Biodistribution Kidney ([7]; Control mice, 2 h): 0.80 ± 0.27 % ID/g | Biodistribution Liver ([7]; Control mice, 2 h): 0.74 ± 0.23 % ID/g | Biodistribution Lung ([7]; Control mice, 2 h): 0.15 ± 0.03 % ID/g | Biodistribution Muscle ([7]; Control mice, 2 h): 0.34 ± 0.27 % ID/g | tracer uptake, LPS-treated vs non-treated mice ([7]; LPS 10 mg/kg intravenously, Table 4 and FIG. 11): greater uptake | Biodistribution Blood ([7]; LPS treated mice, 5 min): 3.69 ± 0.38 % ID/g | Biodistribution Bone ([7]; LPS treated mice, 5 min): 1.59 ± 0.15 % ID/g | Biodistribution Brain ([7]; LPS treated mice, 5 min): 1.81 ± 0.09 % ID/g | Biodistribution Heart ([7]; LPS treated mice, 5 min): 2.03 ± 0.06 % ID/g | Biodistribution Kidney ([7]; LPS treated mice, 5 min): 26.7 ± 4.1 % ID/g | Biodistribution Liver ([7]; LPS treated mice, 5 min): 24.6 ± 3.1 % ID/g | Biodistribution Lung ([7]; LPS treated mice, 5 min): 4.32 ± 0.32 % ID/g | Biodistribution Muscle ([7]; LPS treated mice, 5 min): 1.64 ± 0.09 % ID/g | Biodistribution Blood ([7]; LPS treated mice, 30 min): 2.09 ± 0.35 % ID/g | Biodistribution Bone ([7]; LPS treated mice, 30 min): 3.70 ± 1.20 % ID/g | Biodistribution Brain ([7]; LPS treated mice, 30 min): 0.52 ± 0.15 % ID/g | Biodistribution Heart ([7]; LPS treated mice, 30 min): 1.02 ± 0.16 % ID/g | Biodistribution Kidney ([7]; LPS treated mice, 30 min): 10.9 ± 2.8 % ID/g | Biodistribution Liver ([7]; LPS treated mice, 30 min): 7.06 ± 0.28 % ID/g | Biodistribution Lung ([7]; LPS treated mice, 30 min): 1.84 ± 0.27 % ID/g | Biodistribution Muscle ([7]; LPS treated mice, 30 min): 1.06 ± 0.40 % ID/g | Biodistribution Blood ([7]; LPS treated mice, 1 h): 0.86 ± 0.09 % ID/g | Biodistribution Bone ([7]; LPS treated mice, 1 h): 4.30 ± 0.90 % ID/g | Biodistribution Brain ([7]; LPS treated mice, 1 h): 0.19 ± 0.03 % ID/g | Biodistribution Heart ([7]; LPS treated mice, 1 h): 0.41 ± 0.10 % ID/g | Biodistribution Kidney ([7]; LPS treated mice, 1 h): 3.95 ± 0.53 % ID/g | Biodistribution Liver ([7]; LPS treated mice, 1 h): 2.63 ± 0.52 % ID/g | Biodistribution Lung ([7]; LPS treated mice, 1 h): 0.73 ± 0.17 % ID/g | Biodistribution Muscle ([7]; LPS treated mice, 1 h): 0.78 ± 0.47 % ID/g | Biodistribution Blood ([7]; LPS treated mice, 2 h): 0.23 ± 0.05 % ID/g | Biodistribution Bone ([7]; LPS treated mice, 2 h): 3.77 ± 1.41 % ID/g | Biodistribution Brain ([7]; LPS treated mice, 2 h): 0.07 ± 0.03 % ID/g | Biodistribution Heart ([7]; LPS treated mice, 2 h): 0.12 ± 0.04 % ID/g | Biodistribution Kidney ([7]; LPS treated mice, 2 h): 0.91 ± 0.63 % ID/g | Biodistribution Liver ([7]; LPS treated mice, 2 h): 0.42 ± 0.15 % ID/g | Biodistribution Lung ([7]; LPS treated mice, 2 h): 0.18 ± 0.09 % ID/g | Biodistribution Muscle ([7]; LPS treated mice, 2 h): 0.23 ± 0.13 % ID/g
